The results in this text go back to patent US20110224079A1, “SPIROHETEROCYCLIC N-OXYAMIDES AS PESTICIDES” (SYNGENTA CROP PROTECTION LLC, priority 2008, published 2011).

Data set [1] relates to Myzus persicae (green peach aphid). The experiment in a line: Example B1: activity against Myzus persicae, sprayed sunflower leaf discs (feeding/residual contact, preventive). As to conditions: foliar, 144 h, read-out: activity (mortality).
For data set [2], the system named is Aonidiella Aurantii (red scale). The experiment in a line: Example B12: activity against Aonidiella aurantii, dipped potato tubers. The format is in vivo. As to conditions: 6-8 weeks after application, read-out: activity (number of crawlers of the next generation). The source says:
Activity Against Aonidiella Aurantii (Red Scale)
Treatment of potato tubers by dipping the in the test solution. One day later, tubers are infested with about 50 crawlers. 6-8 weeks after application samples are checked for the number of crawlers of the next generation (compared to the non treated samples).

For data set [3], the system named is Tetranychus urticae (two-spotted spider mite). The data set can be described thus: Example B4: activity against Tetranychus urticae, sprayed bean leaf discs (feeding/residual contact, preventive). The settings on record: foliar, 192 h, read-out: activity (egg, larval and adult mortality).
Data set [4] relates to Bemisia tabaci (tobacco white fly). The experiment in a line: Example B7: activity against Bemisia tabaci, sprayed bean plants (larvicide, contact/feeding). The format is in vivo. As to conditions: 504 h, bean plants with N-2 nymphs sprayed, three weeks, read-out: activity (efficacy, number of emerged adults). As for the experimental part:
Activity Against Bemisia tabaci (Tobacco White Fly)
(Larvicide, Contact/Feeding)
Bean plants are infested with 20-30 adults that were removed after a 4 day egg-laying period. After another 7 days, bean plants with hatched nymphs (N-2) are treated (2 replicates) with the test solutions in a spray chamber. Three weeks later, samples are checked for number of emerged adults. Efficacy was calculated by comparing number of emerged adults in treated and non treated samples.

For data set [5], the system named is Myzus persicae (green peach aphid). The data set can be described thus: Example B2: activity against Myzus persicae, pea seedling roots in test solution (systemic/feeding, curative). The settings on record: 144 h, read-out: activity (mortality).
Data set [6] relates to Nilaparvata lugens (brown rice planthopper). The data set can be described thus: Example B8: activity against Nilaparvata lugens, sprayed rice seedlings (larvicide, feeding/contact). The settings on record: in Oryza sativa, read-out: activity (mortality, growth regulation, effects on F1 generation).
In data set [7] the test system is Aphis Craccivora (cowpea aphid). The experiment in a line: Example B11: translaminar activity against Aphis craccivora on French bean leaves. The class given is in vivo. The settings on record: 120 h, upper leaf side painted, aphids on lower side, 5 days. As for the experimental part:
Translaminar Activity Against Aphis Craccivora (Cowpea Aphid)
French bean leaves (Phaseolus vulgaris) are infested with about 20 mixed age individuals on the lower leaf side using clip cages. 1 day after the infestation, the upper side of the leaves is treated with the test solution by painting. 5 days later, samples are checked for mortality.

The test system of data set [8] is Myzus persicae (green peach aphid). The experiment in a line: Example B13: drench activity against Myzus persicae, pea seedlings in field soil. As to conditions: 168 h, read-out: drench activity (mortality).
For data set [9] the test system is unchanged. The data set can be described thus: Example B17: activity against Myzus persicae on sprayed pepper plants (feeding/residual contact). The format is in vivo. As to conditions: 144 h, infested pepper plants sprayed, 6 days.
The test system of data set [10] is Aphis Craccivora (cowpea aphid). The data set can be described thus: Example B9: activity against Aphis craccivora, sprayed pea seedlings (contact/feeding). As to conditions: 144 h, infested pea seedlings sprayed, 6 days. The format is in vivo. From the text:
(§1) Activity Against Aphis Craccivora (Cowpea Aphid)
(Mixed Population, Contact/Feeding)
6 days after treatment, samples are checked for mortality.

The subject of data set [11] is Frankliniella occidentalis (western flower thrips). The data set can be described thus: Example B6: activity against Frankliniella occidentalis, bean leaf discs or bean plants. The format is in vivo. As to conditions: foliar, 6 days (leaf discs) or 14 days (plants) after infestation, read-out: activity (reduction of treated population). As for the experimental part:
Activity Against Frankliniella occidentalis (Western Flower Thrips)
Bean leaf discs on agar in petri dishes or bean plants in a spray chamber are treated with diluted test solutions. After drying leaf discs are cut and placed in plastic cups on the surface of an agar layer and infested with mixed population. 6 days (leaf discs) or 14 days (plants) after the infestation, samples are checked for reduction of treated population and compared to the non treated population.

The subject of data set [12] is Aphis Craccivora (cowpea aphid). The experiment in a line: Example B10: activity against Aphis craccivora, pea seedling roots in test solution (systemic/feeding). The format is in vivo. As to conditions: 144 h, roots of infested pea seedlings in test solution, 6 days.
Excerpt: as §1
(Mixed Population, Systemic/Feeding)

The test system of data set [13] is Thrips tabaci (onion thrips). The experiment in a line: Example B3: activity against Thrips tabaci, sprayed sunflower leaf discs (feeding/residual contact, preventive). The settings on record: foliar, 144 h, mixed population, 6 days. The class given is in vivo. The source says: Activity Against Thrips tabaci (Onion Thrips)
(Mixed Population, Feeding/Residual Contact Activity, Preventive)

Consider `COCON1C(=O)C(c2cc(C)ccc2C)=C(OC(=O)CC(C)(C)C)C12CCN(OC)CC2` [P1.5], for which the melting point is 93 to 95 °C.
Consider `CCOC(=O)OC1=C(c2c(C)cc(C)cc2C)C(=O)N(OCCOC)C12CCN(OC)CC2` [P1.6], for which the mortality at 400 ppm in data set [1], in data set [3], in data set [5], in [6] and in data set [7] was over 80% each time. For the same molecule, the pest or weed control at 200 ppm in data set [2] and in data set [4] was over 80% each time. Also, in data set [8], the mortality at 25 ppm was over 80%.
In the case of `CCOC(=O)OC1=C(c2c(C)cc(C)cc2C)C(=O)N(OCOCCOC)C12CCN(OC)CC2` [P1.27], the mortality at 400 ppm in [1], in [3], in [10], in data set [5], in data set [6] and in data set [7] was over 80% in each case. In data set [12], this molecule had a mortality at 400 ppm of over 80%. Besides, the mortality at 200 ppm in [9] is at least 80%. Moreover, the pest or weed control at 400 ppm in [11] was over 80%. Also, the mortality at 25 ppm in [8] was over 80%.
As to `COCON1C(=O)C(c2cc(C)ccc2C)=C(OC)C12CCN(OC)CC2` [P1.31], the melting point was in the range of 91 to 93 °C.
`CCOC(=O)OC1=C(c2ccc(C)cc2C)C(=O)N(OC)C12CCN(OC)CC2` [P1.48]: the mortality at 400 ppm in data set [1], in data set [3], in data set [10], in [5], in data set [6] and in data set [7] was over 80% in each case. Moreover, in data set [9], the mortality at 200 ppm was at least 80%. For the same molecule, the pest or weed control at 200 ppm in data set [4] was over 80%. Moreover, the mortality at 25 ppm in data set [8] was over 80%.
In the case of `CCOC(=O)OC1=C(c2c(C)ccc(C)c2Cl)C(=O)N(OCCOC)C12CCN(OC)CC2` [P1.60], the mortality at 400 ppm in [1], in [3], in [10], in data set [5], in data set [6] and in data set [7] was over 80% in each case. This molecule also showed a mortality at 400 ppm in [12] of over 80%. Besides, the pest or weed control at 400 ppm in data set [11] is over 80%. Also, the mortality at 25 ppm in data set [8] was over 80%.
On to `CCOC(=O)OC1=C(c2c(F)ccc(C)c2Cl)C(=O)N(OCOC)C12CCN(OC)CC2` [P1.61], for which the melting point was 116 to 119 °C.
For `CCOC(=O)OC1=C(c2c(C)cc(C)cc2C)C(=O)N(OCC2CCOCC2)C12CCN(OC)CC2` [P1.82], the mortality at 400 ppm in [1], in data set [3], in data set [10], in data set [5], in data set [6] and in data set [7] was over 80% in each case. Also, in data set [12], the mortality at 400 ppm was over 80%. For the same molecule, the mortality at 200 ppm in data set [9] is at least 80%. The pest or weed control at 200 ppm in [4] is over 80%. Further, the mortality at 25 ppm in data set [8] was over 80%.
`CCOC(=O)OC1=C(c2c(C)cc(Cl)cc2C)C(=O)N(OC)C12CCN(OC)CC2` [P1.114] registered a melting point of 122 to 125 °C.
`CCON1C(=O)C(c2c(C)cc(C)cc2C)=C(O)C12CCN(OC)CC2` [P2.9]: the mortality at 400 ppm in data set [1], in data set [10], in data set [5], in [6], in data set [7] and in data set [12] was over 80% each time. Further, in [9], the mortality at 200 ppm was at least 80%. Also, the pest or weed control at 200 ppm in data set [4] is over 80%. Further, the pest or weed control at 400 ppm in data set [11] was over 80%. Also, the mortality at 25 ppm in [8] is over 80%.
Turning to `CON1CCC2(CC1)C(O)=C(c1c(C)cc(C)cc1C)C(=O)N2OCC1CC1` [P2.13], the mortality at 400 ppm in data set [1], in data set [3], in data set [13], in data set [10], in [5] and in [6] was over 80% throughout. In addition, the mortality at 400 ppm in data set [7] and in data set [12] was over 80% each time. Also, in [9], the mortality at 200 ppm is at least 80%. The pest or weed control at 400 ppm in [11] is over 80%. In addition, the mortality at 25 ppm in [8] was over 80%.
For `COCON1C(=O)C(c2c(C)cc(-c3ccc(Cl)cc3)cc2C)=C(O)C12CCN(OC)CC2` [P2.15, 3-(4′-Chloro-3,5-dimethyl-biphenyl-4-yl)-4-hydroxy-8-methoxy-1-methoxymethoxy-1,8-diaza-spiro[4.5]dec-3-en-2-one], the melting point is 128 °C (dec.).
For `CON1CCC2(CC1)C(O)=C(c1c(C)cc(C)cc1C)C(=O)N2OCCOC1CCCCO1` (centres unmarked) [P2.22], the melting point lay in the range of 135 to 137 °C.
For the molecule `COCCOCON1C(=O)C(c2c(C)cc(C)cc2C)=C(O)C12CCN(OC)CC2` [P2.24], the mortality at 400 ppm in data set [1], in [3], in data set [10], in [5], in data set [6] and in data set [7] was over 80% throughout. This molecule had a mortality at 400 ppm in data set [12] of over 80%. The same molecule came in with a mortality at 200 ppm in data set [9] of at least 80%. For the same molecule, the mortality at 25 ppm in data set [8] was over 80%.
Turning to `COCON1C(=O)C(c2c(C)cc(C)cc2Cl)=C(O)C12CCN(OC)CC2` [P2.34], the mortality at 400 ppm in data set [1], in [3], in data set [13], in data set [10], in data set [5] and in [6] was over 80% each time. The mortality at 400 ppm in [7] and in data set [12] was over 80% in each case. In data set [8], the mortality at 25 ppm is over 80%.
Consider `COCON1C(=O)C(c2c(F)ccc(C)c2Cl)=C(O)C12CCN(OC)CC2` [P2.60], for which the melting point was 155 to 158 °C.
Consider `COCCON1C(=O)C(c2cc(Br)c(C)cc2C)=C(O)C12CCN(OC)CC2` [P2.73], for which the melting point lay in the range of 63 to 64 °C.
On the same count and under the same terms, then `CON1CCC2(CC1)C(O)=C(c1cc(Br)c(C)cc1C)C(=O)N2OC` [P2.75], with 86 to 87 °C; and `COCCON1C(=O)C(c2cc(Br)c(F)cc2C)=C(O)C12CCN(OC)CC2` [P2.87], with 71 to 74 °C; and `COCON1C(=O)C(c2cc(Br)c(F)cc2C)=C(O)C12CCN(OC)CC2` [P2.89], with 64 to 67 °C.
As for `CON1CCC2(CC1)C(O)=C(c1c(C)cc(C)cc1C)C(=O)N2OCC1CCCCC1` [P2.96], the melting point is 169 to 172 °C.
The same measure, in the same setting: in the case of `COCCON1C(=O)C(c2c(C)cc(Cl)cc2C)=C(O)C12CCN(OC)CC2` [P2.101] it was 161 to 164 °C.
In turn, `CON1CCC2(CC1)C(O)=C(c1c(C)cc(Cl)cc1C)C(=O)N2OC` [P2.102] showed a melting point of 88 to 92 °C.
Molecule `COCON1C(=O)C(c2c(C)cc(Cl)cc2C)=C(O)C12CCN(OC)CC2` [P2.104] came in with a melting point of 176 to 178 °C.
In turn, `CON1CCC2(CC1)C(O)=C(c1c(C)cc(Cl)cc1C)C(=O)N2OC1CCCO1` (centres unmarked) [P2.105] had a melting point of 137 to 139 °C.
